Test results published in patent US20070014803A1, “METHODS AND COMPOSITIONS FOR DIAGNOSIS AND TREATMENT OF VIRAL AND BACTERIAL INFECTIONS” (Arbor Vita Corporation, priority 2005, published 2007).
Like-named read-outs stand apart in the source and are kept apart here. Where no end group is shown, it is not given here.

Experiments:
NSP = target: T1, NSP (Homo sapiens, UniProt Q92743); test: MATRIX screen against PDZ library (modified G assay); assay type: binding; settings: pre-incubation conditions
T1 construct: made in house
Description: (§1) Matrix graphPeptides and proteins were tested in an array format constituting a near complete set (255) of all the different PDZ domains in the human genome. Each PDZ domain polypeptide was expressed as a recombinant GST-PDZ polypeptide in a commercial glutathione S-transferase tagged expression system. Specific binding of biotinylated-PL peptides to PDZ domain polypeptides was detected using streptavidin-HRP and TMB substrate. Similarly, specific binding of PL protein-MBP fusion proteins to PDZ domain polypeptides was visualized using biotinylated anti-MBP, streptavidin-HRP and TMB substrate. The relative strength of binding was analyzed and the strong and weak binders are shown for each PL. A PDZ protein that binds more strongly is preferable when used for capturing or identifying PL proteins.
(§2) Two different types of ELISA assays were used to test the HIV Peptides 1904 and 1905. The primary MATRIX screen against all PDZ proteins in the library was performed under pre-incubation conditions, which are a modification of the G assay. A pre-incubation assay incubates the peptide with the HRP-streptavidin before addition of the mixture to the PDZ-coated plate. The subsequent titrations of the peptide against the PDZs of interest were performed under normal ELISA G assay conditions. In normal conditions the peptide is incubated on the PDZ coated plate before the later addition of the HRP-streptavidin. The reagents and supplies for both assays are listed below, as well as the two different protocols.
(§3) The PRISM Matrix ELISA modified G Assay was also used for pre-incubation and for the MATRIX assay. The protocol was as follows.
(§4) 1. Coat plate with 100 μl of 5 μg/ml anti-GST, O/N @ 4° C.
(§5) 2. Dump contents out of plate and tap dry on paper towels
(§6) 3. Block with 200 μl Assay Buffer for 1 to 2 hrs at room temperature
(§7) 4. Prepare proteins in Assay Buffer
(§8) 5. Wash plate 3× with cold PBS*
(§9) 6. Add proteins at 50 μl per well, incubate 1 to 2 hrs at 4° C.
(§10) 7. Prepare peptides in Assay Buffer:
(§11) • Prepare peptides in half of volume need with double of desired concentration. • Dilute HRP (1:1000) in another half of volume (same volume with peptide) then mix with peptides. • Incubate the peptide-HRP mixtures for 20 minutes at RT 8. Wash plate 3× with cold PBS* 9. Add peptide-HRP mixtures at 50 μl per well (write time on plate) 10. Incubate at RT after last peptide has been added for exactly 30 minutes 11. Turn on plate reader and prepare files 12. Promptly wash plate 5× with room temperature PBS 13. Add 100 μl/well TMB substrate (write time on plate) 14. Incubate in dark at room temp for a maximum of 30 minutes 15. Stop reaction with 100 μl of 0.18M H2SO4, 30 min. after adding TMB 16. Take last reading at 450 nm soon after stopping reaction

MAST2 = target: T2, MAST2 (Homo sapiens, UniProt Q6P0Q8); test: as above; assay type: binding; settings: pre-incubation conditions
T2 construct: made in house
Description: as §1, §2, §3, §4, §5, §6, §7, §8, §9, §10, §11

SIP1 d1 = target: T3, SIP1 d1 (Homo sapiens, UniProt Q15599); test: as above; assay type: binding; settings: pre-incubation conditions
T3 construct: made in house
Description: as §1, §2, §3, §4, §5, §6, §7, §8, §9, §10, §11

PAR3 d3 = target: T4, PAR3 d3 (Homo sapiens, UniProt Q8TEW0, R682S); test: as above; assay type: binding; settings: pre-incubation conditions
T4 construct: made in house
Description: as §1, §2, §3, §4, §5, §6, §7, §8, §9, §10, §11

KIAA1284 = target: T5, KIAA1284 (Homo sapiens, UniProt Q9ULD6); test: as above; assay type: binding; settings: pre-incubation conditions
T5 construct: made in house
Description: as §1, §2, §3, §4, §5, §6, §7, §8, §9, §10, §11

[1] = target: T6, PDZ protein ZO-1 d2 (domain 2) (Homo sapiens, UniProt Q07157, DEL264-264); test: PRISM Matrix ELISA modified G assay (pre-incubation), peptide titration; settings: read-out: EC50 of binding to the PDZ protein ZO-1 d2
T6 construct: made in house
T6 sequence (Q07157 with tags, fused parts or gaps DEL264-264): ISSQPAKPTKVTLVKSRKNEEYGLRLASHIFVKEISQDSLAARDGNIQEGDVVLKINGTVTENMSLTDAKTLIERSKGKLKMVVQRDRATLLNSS
Description: as §2, §3, §4, §5, §6, §7, §8, §9, §10, §11

PDZ protein NSP = target: T7, PDZ protein NSP (Homo sapiens, UniProt Q92743); test: as above; settings: read-out: EC50 of binding to the PDZ protein NSP
T7 construct: made in house
Description: as §2, §3, §4, §5, §6, §7, §8, §9, §10, §11

PDZ protein Rim2 = target: T8, PDZ protein Rim2 (Homo sapiens, UniProt Q9UQ26); test: as above; settings: read-out: EC50 of binding to the PDZ protein Rim2
T8 construct: made in house
T8 sequence (Q9UQ26 632-757): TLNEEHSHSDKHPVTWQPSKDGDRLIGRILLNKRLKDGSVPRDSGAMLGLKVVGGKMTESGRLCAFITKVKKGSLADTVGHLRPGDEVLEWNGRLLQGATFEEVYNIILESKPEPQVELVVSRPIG
Description: as §2, §3, §4, §5, §6, §7, §8, §9, §10, §11

[2] = modified G assay titration (FIG. 2B, FIG. 3B)
[3] = modified G assay titration (FIG. 2D, FIG. 3D)
[4] = modified G assay titration (FIG. 2C, FIG. 3C)

T7 sequence (Q92743 359-473): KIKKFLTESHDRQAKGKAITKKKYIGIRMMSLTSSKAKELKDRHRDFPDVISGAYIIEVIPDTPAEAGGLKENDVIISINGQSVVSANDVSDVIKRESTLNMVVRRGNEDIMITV
T4 sequence (Q8TEW0 with tags, fused parts or gaps R682S): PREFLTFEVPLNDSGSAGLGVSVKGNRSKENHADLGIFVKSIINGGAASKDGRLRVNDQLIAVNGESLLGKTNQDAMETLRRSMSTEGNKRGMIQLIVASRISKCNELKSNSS
T3 sequence (Q15599 with tags, fused parts or gaps): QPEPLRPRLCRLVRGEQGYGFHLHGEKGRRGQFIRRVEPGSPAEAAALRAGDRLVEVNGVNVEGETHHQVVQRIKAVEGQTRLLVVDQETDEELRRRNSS
T1 sequence (Q92743 359-473): as the sequence (Q92743 359-473) above
T2 sequence (Q6P0Q8 with tags, fused parts or gaps): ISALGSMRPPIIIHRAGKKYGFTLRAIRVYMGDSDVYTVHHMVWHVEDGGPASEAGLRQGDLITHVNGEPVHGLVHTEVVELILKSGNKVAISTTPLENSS
T5 sequence (Q9ULD6 159-271): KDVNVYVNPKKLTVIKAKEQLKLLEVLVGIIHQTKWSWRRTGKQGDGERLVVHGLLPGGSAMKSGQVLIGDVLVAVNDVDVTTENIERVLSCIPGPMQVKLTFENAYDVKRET

| Substance | Intensity of Hit, PDZ NSP (NSP) | Intensity of Hit, PDZ MAST2 (MAST2) | Intensity of Hit, PDZ SIP1 d1 (SIP1 d1) | Intensity of Hit, PDZ PAR3 d3 (PAR3 d3) | Intensity of Hit, PDZ KIAA1284 (KIAA1284) | EC50 [1, 2] [µM] | EC50 (PDZ protein NSP; [3]) [µM] | EC50 (PDZ protein Rim2; [4]) [µM] | EC50 ([1]; modified G assay titration, third experiment (FIG. 5B)) [µM] | EC50 (PDZ protein NSP; modified G assay titration, third experiment (FIG. 5, printed as FIG. 3D)) [µM] | EC50 (PDZ protein Rim2; modified G assay titration, third experiment (FIG. 5, printed as FIG. 3C)) [µM] |
| --- | --- | --- | --- | --- | --- | --- | --- | --- | --- | --- | --- |
| YGRKKRRQRRRRQGLERILL-OH [Peptide 1904] | STRONG | STRONG | WEAK | STRONG | STRONG | 0.025 | 0.0149 | 0.03 | – | – | – |
| YGRKKRRQRRRRQGFERALL-OH [Peptide 1905] | STRONG | STRONG | STRONG | STRONG | STRONG | 0.0028 | 0.008 | 0.014 | 0.036 | 0.03 | 0.068 |
